From PubChem BioAssay AID1963835 (Molecular Pharmacology Branch, DTP, NCI, 2024)

Test system: 699152-130-R-J1-PDC complex spheroid viability
Experiment: Anticancer human tumor 699152-130-R-J1-PDC patient-derived pancreatic carcinoma cell line growth inhibition [POLQ]
Details: for IC50: curve of first compound; for viability, T/C: stronger effect = lower value; active = viability on the fitted dose curve at most 10% of control; inactive = the rest
Method: Multicellular complex tumor spheroid response to Polymerase (POL) inhibitors (novobiocin, ART-558, RP6685) in combination with a variety of drugs and investigational agents in selected tumor cell lines
The POL inhibitors (novobiocin, ART-558, and RP6685) were evaluated both individually and in combination with standard of care and investigational anticancer small molecules within a complex spheroid model of solid tumors. . Complex spheroids include a stromal component modeled by human endothelial cells (HUVEC) and fibroblasts modeled by human mesenchymal stem cells (MSCs). The concentration ranges selected for each drug and investigational agent were based upon clinically achievable concentrations if the clinical Cmax of the agent was known.
Compounds. The drugs and investigational agents: novobiocin (NSC847541), ART-558 (NSC835418), RP-6685 (NSC848927), peposertib (NSC802822), ceralasertib (NSC780249), elimusertib (NSC800525), camonsertib (NSC841442), AZD-1390 (NSC803789), olaparib (NSC753686), talazoparib (NSC767125), rucaparib (NSC756644), sotorasib (NSC818433), MRTX-1133 (NSC836407), SN-38 (NSC673596), topotecan (NSC609699), epotoside (NSC141540), doxorubicin (NSC123127), gemcitabine (NSC613327), 5-fluorouracil (NSC19893), paclitaxel (NSC125973), vemurafenib (NSC761431), MSA-2 (NSC828583), SN-011 (NSC837082), adavosertib (NSC754352), prexasertib (NSC758257), carboplatin (NSC241240) and oxaliplatin (NSC266046), were obtained from the National Cancer Institute (NCI) Developmental Therapeutics Program Chemical Repository (21). The FDA-approved anticancer drug set is available from the Developmental Therapeutics Program at https://dtp.cancer.gov/organization/dscb/obtaining/. […] The stock solutions were prepared in dimethyl sulfoxide (DMSO, Sigma-Aldrich, St. Louis, MO, cat. D2650), except for the platinum compounds which were prepared in saline (Quality Biological, Gaithersburg, MD, cat. 114-055-101), at 800-fold the tested concentration and stored at -70 degrees C prior to their use. All drugs and investigational agents were tested over a range starting from a high concentration at or near the clinical Cmax and decreasing in half-log increments. If the clinical Cmax for an agent had not been determined, the highest concentration tested was 10 microM, except for SN-38, which was tested at a high concentration of 1 microM.
Cell Culture. All cells were maintained in an incubator at 37 degrees C and 5% CO2 with 95% humidity. The PDC lines were cultured according to standard operating procedures established by the NCI PDMR (https://pdmr.cancer.gov). Table 3 of the manuscript, lists the cell lines along with the number of the three cell types plated to form the mct-spheroids and media for tumor cell growth. After thawing, all PDC lines, except 997537-175-T-J1-PDC and 415267-285-R-J2-PDC, were cultured in Matrigel-coated flasks prepared with a working solution of 1X Ham's F-12 nutrient mix, without supplementation (Thermo Fisher Scientific, cat. 11765054), 100 U/mL penicillin-streptomycin (Thermo Fisher Scientific, cat. 15140122), and 2.5% Matrigel (Corning Inc., Corning, NY, cat. 354248) for the first three passages. The two PDC lines 997537-175-T-J1-PDC and 415267-285-R-J2-PDC were cultured on uncoated flasks. The 857933-349-R-J2-PDC line was cultured in 6C/Colon 1B media containing advanced DMEM/F-12 (Thermo Fisher Scientific, cat. 12634028), 10 mM HEPES (Thermo Fisher Scientific, cat. 15630080), 1X GlutaMAX supplement (Thermo Fisher Scientific, cat. 35050061), 0.1 mg/mL primocin (InvivoGen, San Diego, CA, cat. ant-pm-2), 10% defined fetal bovine serum, heat inactivated (HyClone Laboratories Inc., Logan, UT, cat. SH30070.03HI), 50% L-WRN conditioned media (ATCC, cat. CRL-3276), 1.25 mM N-Acetyl-L-cysteine (Sigma-Aldrich, cat. A9165), 10 mM nicotinamide (Sigma-Aldrich, cat. N0636), 1X B-27 supplement (Thermo Fisher Scientific, cat. 17504044), 1X N-2 supplement (Thermo Fisher Scientific, cat. […]

[1] = second compound 0.0316 µM, first compound 0.0316 µM
[2] = second compound 0.0316 µM, first compound 0.1 µM
[3] = second compound 0.0316 µM, first compound 0.316 µM
[4] = second compound 0.0316 µM, first compound 1 µM
[5] = second compound 0.0316 µM, first compound 3.16 µM
[6] = second compound 0.0316 µM, first compound 10 µM
[7] = second compound 0.1 µM, first compound 0.0316 µM
[8] = second compound 0.1 µM, first compound 0.1 µM
[9] = second compound 0.1 µM, first compound 0.316 µM
[10] = second compound 0.1 µM, first compound 1 µM
[11] = second compound 0.1 µM, first compound 3.16 µM
[12] = second compound 0.1 µM, first compound 10 µM
[13] = second compound 0.316 µM, first compound 0.0316 µM
[14] = second compound 0.316 µM, first compound 0.1 µM
[15] = second compound 0.316 µM, first compound 0.316 µM
[16] = second compound 0.316 µM, first compound 1 µM
[17] = second compound 0.316 µM, first compound 3.16 µM
[18] = second compound 0.316 µM, first compound 10 µM
[19] = second compound 1 µM, first compound 0.0316 µM
[20] = second compound 1 µM, first compound 0.1 µM
[21] = second compound 1 µM, first compound 0.316 µM
[22] = second compound 1 µM, first compound 1 µM
[23] = second compound 1 µM, first compound 3.16 µM
[24] = second compound 1 µM, first compound 10 µM
[25] = second compound 3.16 µM, first compound 0.0316 µM
[26] = second compound 3.16 µM, first compound 0.1 µM
[27] = second compound 3.16 µM, first compound 0.316 µM
[28] = second compound 3.16 µM, first compound 1 µM
[29] = second compound 3.16 µM, first compound 3.16 µM
[30] = second compound 3.16 µM, first compound 10 µM
[31] = second compound 10 µM, first compound 0.0316 µM
[32] = second compound 10 µM, first compound 0.1 µM
[33] = second compound 10 µM, first compound 0.316 µM
[34] = second compound 10 µM, first compound 1 µM
[35] = second compound 10 µM, first compound 3.16 µM
[36] = second compound 10 µM, first compound 10 µM
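Note: spheroids exposed to agents for 7 days before viability reading.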
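Throughout, for viability, T/C: percent of DMSO vehicle control viability so 100% = vehicle and 0% = no viable signal.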

CCc1cc2c(N3CCc4c(cc(Cn5ccnc5)cc4-c4cn(C)nc4C(F)(F)F)C3=O)ccnc2c(OC)n1 + Nc1ccc(C#CCN(C(=O)Cc2ncc(C(F)(F)F)cc2C(F)(F)F)c2ccc(F)cc2)nn1
inactive: viability, T/C [1] 93.3% | viability, T/C [2] 87.5% | viability, T/C [3] 91.8% | viability, T/C [4] 89.9% | viability, T/C [5] 102% | viability, T/C [6] 99.6% | viability, T/C [7] 88.4% | viability, T/C [8] 90% | viability, T/C [9] 89.4% | viability, T/C [10] 98% | viability, T/C [11] 101% | viability, T/C [12] 100% | viability, T/C [13] 86.2% | viability, T/C [14] 93.5% | viability, T/C [15] 93.6% | viability, T/C [16] 95.4% | viability, T/C [17] 106% | viability, T/C [18] 99.1% | viability, T/C [19] 92.5% | viability, T/C [20] 91.2% | viability, T/C [21] 107% | viability, T/C [22] 94.7% | viability, T/C [23] 106% | viability, T/C [24] 98.8% | viability, T/C [25] 88% | viability, T/C [26] 88.5% | viability, T/C [27] 96.4% | viability, T/C [28] 102% | viability, T/C [29] 107% | viability, T/C [30] 104% | viability, T/C [31] 101% | viability, T/C [32] 102% | viability, T/C [33] 111% | viability, T/C [34] 111% | viability, T/C [35] 109% | viability, T/C [36] 110%
> 10 µM: IC50 (second compound 0.0316 µM) | IC50 (second compound 0.1 µM) | IC50 (second compound 0.316 µM) | IC50 (second compound 1 µM) | IC50 (second compound 3.16 µM) | IC50 (second compound 10 µM)

CC1COCCN1c1cc(C2(S(C)(=N)=O)CC2)nc(-c2ccnc3[nH]ccc23)n1 (centres undefined) + Cc1cccc(N(C)C(=O)C2C(O)CCN2c2nc(C)cc(C(F)(F)F)c2C#N)c1
inactive: viability, T/C [1] 102% | viability, T/C [2] 95.6% | viability, T/C [3] 90.2% | viability, T/C [4] 99.9% | viability, T/C [5] 81.4% | viability, T/C [6] 64% | viability, T/C [7] 99.8% | viability, T/C [8] 110% | viability, T/C [9] 89.5% | viability, T/C [10] 92.8% | viability, T/C [11] 75.2% | viability, T/C [12] 73.7% | viability, T/C [13] 110% | viability, T/C [14] 91.7% | viability, T/C [15] 102% | viability, T/C [16] 83.5% | viability, T/C [17] 76.5% | viability, T/C [18] 68.8% | viability, T/C [19] 107% | viability, T/C [20] 97.8% | viability, T/C [21] 97.5% | viability, T/C [22] 81.7% | viability, T/C [23] 80.2% | viability, T/C [24] 67.8% | viability, T/C [25] 102% | viability, T/C [26] 97.9% | viability, T/C [27] 99% | viability, T/C [28] 96.3% | viability, T/C [29] 77.5% | viability, T/C [30] 70.8% | viability, T/C [31] 104% | viability, T/C [32] 110% | viability, T/C [33] 103% | viability, T/C [34] 85.8% | viability, T/C [35] 95.1% | viability, T/C [36] 69.8%
> 10 µM: IC50 (second compound 0.0316 µM) | IC50 (second compound 0.1 µM) | IC50 (second compound 0.316 µM) | IC50 (second compound 1 µM) | IC50 (second compound 3.16 µM) | IC50 (second compound 10 µM)
